According to PubChem BioAssay (NCI):
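Grown in 96-well plates, cells were treated for 48 hours with each compound at five concentrations. Insufficient inhibition: endpoint recorded as highest concentration tested. The concentration for 50% growth inhibition is given as GI50. At the TGI there is no net growth.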

Key:
Experiment in all cases: DTP human tumour cell line panel, 48 h
NCI-H226 lung = system: NCI-H226 lung
HCC-2998 colon = system: HCC-2998 colon
RXF 393 renal = system: RXF 393 renal
ACHN renal = system: ACHN renal
DU-145 prostate = system: DU-145 prostate
786-0 renal = system: 786-0 renal
TK-10 renal = system: TK-10 renal
SK-MEL-5 melanoma = system: SK-MEL-5 melanoma
HCT-116 colon = system: HCT-116 colon
KM12 colon = system: KM12 colon
K-562 leukemia = system: K-562 leukemia
SF-539 CNS = system: SF-539 CNS
MCF7 breast = system: MCF7 breast
SNB-75 CNS = system: SNB-75 CNS
SR leukemia = system: SR leukemia
NCI-H23 lung = system: NCI-H23 lung
SK-MEL-28 melanoma = system: SK-MEL-28 melanoma
SF-268 CNS = system: SF-268 CNS
OVCAR-3 ovarian = system: OVCAR-3 ovarian
LOX IMVI melanoma = system: LOX IMVI melanoma
PC-3 prostate = system: PC-3 prostate
RPMI-8226 leukemia = system: RPMI-8226 leukemia
EKVX NSCLC = system: EKVX NSCLC
SK-MEL-2 melanoma = system: SK-MEL-2 melanoma
A498 renal = system: A498 renal
OVCAR-8 ovarian = system: OVCAR-8 ovarian
CAKI-1 renal = system: CAKI-1 renal
HOP-92 NSCLC = system: HOP-92 NSCLC
A549 NSCLC = system: A549 NSCLC
MOLT-4 leukemia = system: MOLT-4 leukemia
NCI-H460 lung = system: NCI-H460 lung
SK-OV-3 ovarian = system: SK-OV-3 ovarian
HL-60(TB) leukemia = system: HL-60(TB) leukemia
HOP-62 NSCLC = system: HOP-62 NSCLC
NCI/ADR-RES ovarian = system: NCI/ADR-RES ovarian
SNB-19 CNS = system: SNB-19 CNS
MDA-MB-231 breast = system: MDA-MB-231 breast
UO-31 renal = system: UO-31 renal
HT29 colon = system: HT29 colon
BT-549 breast = system: BT-549 breast
UACC-62 melanoma = system: UACC-62 melanoma
MALME-3M melanoma = system: MALME-3M melanoma
HS 578T breast = system: HS 578T breast
SW-620 colon = system: SW-620 colon
OVCAR-5 ovarian = system: OVCAR-5 ovarian
U251 CNS = system: U251 CNS
HCT-15 colon = system: HCT-15 colon
OVCAR-4 ovarian = system: OVCAR-4 ovarian
M14 melanoma = system: M14 melanoma
MDA-MB-435 = system: MDA-MB-435
IGROV1 ovarian = system: IGROV1 ovarian
SN12C renal = system: SN12C renal
CCRF-CEM leukemia = system: CCRF-CEM leukemia
UACC-257 melanoma = system: UACC-257 melanoma
SF-295 CNS = system: SF-295 CNS
COLO 205 colon = system: COLO 205 colon
T-47D breast = system: T-47D breast
NCI-H522 lung = system: NCI-H522 lung

CC(=O)OC1Oc2ccccc2-c2oc(=O)c(-c3ccc(F)cc3)cc21 (stereo unspecified)
GI50 (NCI-H226 lung): 29.7 µM
TGI (NCI-H226 lung): 78.1 µM
GI50 (HCC-2998 colon): 24.8 µM
TGI (HCC-2998 colon): > 100 µM
GI50 (RXF 393 renal): 26.8 µM
TGI (RXF 393 renal): 99.7 µM
GI50 (ACHN renal): 31.8 µM
TGI (ACHN renal): > 100 µM
GI50 (DU-145 prostate): 29 µM
TGI (DU-145 prostate): > 100 µM
GI50 (786-0 renal): 17.7 µM
TGI (786-0 renal): 77.3 µM
GI50 (TK-10 renal): 26.7 µM
TGI (TK-10 renal): 83.8 µM
GI50 (SK-MEL-5 melanoma): 14.9 µM
TGI (SK-MEL-5 melanoma): 31 µM
GI50 (HCT-116 colon): 31.5 µM
TGI (HCT-116 colon): > 100 µM
GI50 (KM12 colon): 12.2 µM
TGI (KM12 colon): 43 µM
GI50 (K-562 leukemia): 17.1 µM
TGI (K-562 leukemia): > 100 µM
GI50 (SF-539 CNS): 24.6 µM
TGI (SF-539 CNS): 74.6 µM
GI50 (MCF7 breast): 6.01 µM
TGI (MCF7 breast): 40 µM
GI50 (SNB-75 CNS): 5.59 µM
TGI (SNB-75 CNS): 41.7 µM
GI50 (SR leukemia): 2.86 µM
TGI (SR leukemia): 9.08 µM
GI50 (NCI-H23 lung): 40.7 µM
TGI (NCI-H23 lung): > 100 µM
GI50 (SK-MEL-28 melanoma): 32.6 µM
TGI (SK-MEL-28 melanoma): > 100 µM
GI50 (SF-268 CNS): 29.6 µM
TGI (SF-268 CNS): > 100 µM
GI50 (OVCAR-3 ovarian): 23.2 µM
TGI (OVCAR-3 ovarian): 71.7 µM
GI50 (LOX IMVI melanoma): 16.6 µM
TGI (LOX IMVI melanoma): 73.2 µM
GI50 (PC-3 prostate): 32.7 µM
TGI (PC-3 prostate): > 100 µM
GI50 (RPMI-8226 leukemia): 24.6 µM
TGI (RPMI-8226 leukemia): 60.3 µM
GI50 (EKVX NSCLC): 9.46 µM
TGI (EKVX NSCLC): 83.3 µM
GI50 (SK-MEL-2 melanoma): 39.5 µM
TGI (SK-MEL-2 melanoma): > 100 µM
GI50 (A498 renal): 28.3 µM
TGI (A498 renal): 71.9 µM
GI50 (OVCAR-8 ovarian): 36.3 µM
TGI (OVCAR-8 ovarian): > 100 µM
GI50 (CAKI-1 renal): 30.9 µM
TGI (CAKI-1 renal): > 100 µM
GI50 (HOP-92 NSCLC): 29.6 µM
TGI (HOP-92 NSCLC): 96.9 µM
GI50 (A549 NSCLC): 38.8 µM
TGI (A549 NSCLC): > 100 µM
GI50 (MOLT-4 leukemia): 14 µM
TGI (MOLT-4 leukemia): 31.1 µM
GI50 (NCI-H460 lung): 25.2 µM
TGI (NCI-H460 lung): > 100 µM
GI50 (SK-OV-3 ovarian): 35 µM
TGI (SK-OV-3 ovarian): > 100 µM
GI50 (HL-60(TB) leukemia): 24.9 µM
TGI (HL-60(TB) leukemia): > 100 µM
GI50 (HOP-62 NSCLC): 8.79 µM
TGI (HOP-62 NSCLC): 40.2 µM
GI50 (NCI/ADR-RES ovarian): 60 µM
TGI (NCI/ADR-RES ovarian): > 100 µM
GI50 (SNB-19 CNS): 30.6 µM
TGI (SNB-19 CNS): > 100 µM
GI50 (MDA-MB-231 breast): 33.9 µM
TGI (MDA-MB-231 breast): > 100 µM
GI50 (UO-31 renal): 32.8 µM
TGI (UO-31 renal): > 100 µM
GI50 (HT29 colon): 21.6 µM
TGI (HT29 colon): > 100 µM
GI50 (BT-549 breast): 23.8 µM
TGI (BT-549 breast): 69.1 µM
GI50 (UACC-62 melanoma): 10.8 µM
TGI (UACC-62 melanoma): 33.6 µM
GI50 (MALME-3M melanoma): 21.9 µM
TGI (MALME-3M melanoma): 70.7 µM
GI50 (HS 578T breast): 10.4 µM
TGI (HS 578T breast): 74.7 µM
GI50 (SW-620 colon): 19 µM
TGI (SW-620 colon): > 100 µM
GI50 (OVCAR-5 ovarian): 66.5 µM
TGI (OVCAR-5 ovarian): > 100 µM
GI50 (U251 CNS): 16.8 µM
TGI (U251 CNS): > 100 µM
GI50 (HCT-15 colon): 20.9 µM
TGI (HCT-15 colon): > 100 µM
GI50 (OVCAR-4 ovarian): 28.2 µM
TGI (OVCAR-4 ovarian): > 100 µM
GI50 (M14 melanoma): 25.3 µM
TGI (M14 melanoma): 95.8 µM
GI50 (MDA-MB-435): 4.33 µM
TGI (MDA-MB-435): 40.3 µM
GI50 (IGROV1 ovarian): 33.5 µM
TGI (IGROV1 ovarian): > 100 µM
GI50 (SN12C renal): 35.1 µM
TGI (SN12C renal): > 100 µM
GI50 (CCRF-CEM leukemia): 23.4 µM
TGI (CCRF-CEM leukemia): 55.2 µM
GI50 (UACC-257 melanoma): 35.5 µM
TGI (UACC-257 melanoma): > 100 µM
GI50 (SF-295 CNS): 23.3 µM
TGI (SF-295 CNS): > 100 µM
GI50 (COLO 205 colon): 36.3 µM
TGI (COLO 205 colon): > 100 µM
GI50 (T-47D breast): 22.5 µM
TGI (T-47D breast): 93.3 µM
GI50 (NCI-H522 lung): 20.2 µM
TGI (NCI-H522 lung): 78.3 µM
